# Reference: patent US10961539B2, “Promoter system inducing expression by 3-hydroxypropionic acid and method for biological production of 3-hydroxypropionic acid using same” (NOROO IC Co., Ltd., priority 2015, dated 2021)
# Several values for one entry are separate records, joined by “and”; a condition that tells them apart may be missing. Equal values may be shown once. Read-outs that look alike come from different tables or passages of the source.
# Tests used:
# [1] = tested on: mmsadh; format: cell-based, microorganisms shown in Table 1
# [2] = tested on: 3hpdh, 3hibdhIV, and mmsadh; test: Inducer specificity of gene expression (FIGS. 4 and 5); format: cell-based, Pseudomonas denitrificans
# [3] = tested on: C4-LysR protein and promoter DNA fragments; test: Electrophoretic mobility shift assay (EMSA) of C4-LysR protein with promoter DNA fragments; format: binding, Pseudomonas denitrificans; conditions: 25 mM 3-HP
# [4] = tested on: C4-LysR; test: GFP reporter inserted at C4-LysR position; format: cell-based, Pseudomonas denitrificans; conditions: w 3-HP 25 mM
# Source text: The effect of the O1 and O2 operators on biosynthesis of the C4-LysR protein and the mmsadh expression was examined by using a green fluorescent protein (GFP) as a reporter (Table 2). In Table 2, the effect of the C4-LysR protein and the O1 and O2 operators on the expression of the C4-LysR and the mmsadh. The relative size of the GFP was shown relative to the wild type in the absence of 3-HP. the C4-LysR protein was either not present or was produced by a constitutive promoter, and a plasmid was prepared to control the expression of the GFP upon the existing promoter having the O1 and O2 operators. Then, the experiment was carried out by inserting the prepared plasmid into a host of P. denitrificans from which genes between the C4-LysR and the mmsadh was deleted. Accordingly, the expression of the GFP was suppressed by the C4-LysR protein itself. That is, when the C4-LysR is expressed, the GFP expression was reduced by more than 10-fold. In addition, the expression regulation was also constant regardless of the presence of 3-HP. In this regard, it was confirmed that the transcription of C4-LysR mRNA was negatively regulated by the C4-LysR protein. This experiment was repeated by using a promoter that randomized the O1 and O2 operators to eliminate the symmetrical dyad. As a result, in the case where the O1 or O2 operator site was randomized, the GFP expression was not regulated by the C4-LysR protein, referring that the C4-LysR protein in the P. denitrificans strain was negatively regulated by the strain itself.
smiles,measurement,setting,value
"O=C(O)CCO [3-HP, 3-hydroxypropionic acid]",Relative mRNA level mmsadh + 3-HP,[1],5.21 and 5.19
same,Relative mRNA level mmsadh + 3-HP,"[1]; Achromobacter denitrificans, + 3-HP",6.34
same,Relative mRNA level mmsadh + 3-HP,"[1]; Acidovorax avenae subsp., + 3-HP",5.98
same,Relative mRNA level mmsadh + 3-HP,"[1]; Acidovorax sp., + 3-HP",6.04
same,Relative mRNA level mmsadh + 3-HP,"[1]; Acinetobacter baumannii, + 3-HP",5.76
same,Relative mRNA level mmsadh + 3-HP,"[1]; Aeromonas hydrophilia, + 3-HP",6.14
same,Relative mRNA level mmsadh + 3-HP,"[1]; Agrobacterium sp., + 3-HP",6.56
same,Relative mRNA level mmsadh + 3-HP,"[1]; Alcaligenes faecalis, + 3-HP",5.73
same,Relative mRNA level mmsadh + 3-HP,"[1]; Alcanivorax hongdengensis, + 3-HP",6.58
same,Relative mRNA level mmsadh + 3-HP,"[1]; Alicychphilus denitrificans, + 3-HP",6.01
same,Relative mRNA level mmsadh + 3-HP,"[1]; Alteromonas marina, + 3-HP",5.73
same,Relative mRNA level mmsadh + 3-HP,"[1]; Amycolatopsis sp., + 3-HP",6.05
same,Relative mRNA level mmsadh + 3-HP,"[1]; Anaeromyxobacter dehalogenans, + 3-HP",5.44
same,Relative mRNA level mmsadh + 3-HP,"[1]; Azospirillum brasilensse, + 3-HP",6.05
same,Relative mRNA level mmsadh + 3-HP,"[1]; Azotobacter vinelandii, + 3-HP",5.87
same,Relative mRNA level mmsadh + 3-HP,"[1]; Beijerinckia indica, + 3-HP",5.01
same,Relative mRNA level mmsadh + 3-HP,"[1]; Bordetella avium, + 3-HP",4.98
same,Relative mRNA level mmsadh + 3-HP,"[1]; Bradyrhizobium japonicum, + 3-HP",5.49
same,Relative mRNA level mmsadh + 3-HP,"[1]; Burkholderia ambifaria, + 3-HP",5.13
same,Relative mRNA level mmsadh + 3-HP,"[1]; Castellaniella defragrans, + 3-HP",5.98
same,Relative mRNA level mmsadh + 3-HP,"[1]; Catenulispora acidiphilia, + 3-HP",5.24
same,Relative mRNA level mmsadh + 3-HP,"[1]; Caulobacter sp., + 3-HP",5.96
same,Relative mRNA level mmsadh + 3-HP,"[1]; Chromobacterium violaceum, + 3-HP",6.31
same,Relative mRNA level mmsadh + 3-HP,"[1]; Collimonas arenae, + 3-HP",5.87
same,Relative mRNA level mmsadh + 3-HP,"[1]; Comamonas testosteroni, + 3-HP",4.96
same,Relative mRNA level mmsadh + 3-HP,"[1]; Corynebacterium vitaeruminis, + 3-HP",5.89
same,Relative mRNA level mmsadh + 3-HP,"[1]; Cupriavidus necator, + 3-HP",6.05
same,Relative mRNA level mmsadh + 3-HP,"[1]; Curvibacter gracilus, + 3-HP",3.99
same,Relative mRNA level mmsadh + 3-HP,"[1]; Delftia acidovorans, + 3-HP",4.03
same,Relative mRNA level mmsadh + 3-HP,"[1]; Ferrimonas balearica, + 3-HP",5.17
same,Relative mRNA level mmsadh + 3-HP,"[1]; Glaciecola nitratireducens, + 3-HP",4.81
same,Relative mRNA level mmsadh + 3-HP,"[1]; Gordonia bronchialis, + 3-HP",5.21
same,Relative mRNA level mmsadh + 3-HP,"[1]; Hahella chijuensis, + 3-HP",5.97
same,Relative mRNA level mmsadh + 3-HP,"[1]; Halomonas elongata, + 3-HP",4.34
same,Relative mRNA level mmsadh + 3-HP,"[1]; Hirschia litorea, + 3-HP",4.56
same,Relative mRNA level mmsadh + 3-HP,"[1]; Idiomarina sp., + 3-HP",5.43
same,Relative mRNA level mmsadh + 3-HP,"[1]; Janthinobacterium lividum, + 3-HP",5.01
same,Relative mRNA level mmsadh + 3-HP,"[1]; Kitasatospora setae, + 3-HP",5.25
same,Relative mRNA level mmsadh + 3-HP,"[1]; Kutzneria albida, + 3-HP",5.61
same,Relative mRNA level mmsadh + 3-HP,"[1]; Methylobacterium sp., + 3-HP",598
same,Relative mRNA level mmsadh + 3-HP,"[1]; Methylocystis sp., + 3-HP",4.91
same,Relative mRNA level mmsadh + 3-HP,"[1]; Novosphingobium sp., + 3-HP",6.04
same,Relative mRNA level mmsadh + 3-HP,"[1]; Oceanimonas smirnovii, + 3-HP",4.88
same,Relative mRNA level mmsadh + 3-HP,"[1]; Paracoccus sp., + 3-HP",4.96
same,Relative mRNA level mmsadh + 3-HP,"[1]; Parvibaculum lavamentivorans, + 3-HP",4.99
same,Relative mRNA level mmsadh + 3-HP,"[1]; Phenylobacterium kunshanensis, + 3-HP",5.02
same,Relative mRNA level mmsadh + 3-HP,"[1]; Photobacterium gaetbuleda, + 3-HP",5.06
same,Relative mRNA level mmsadh + 3-HP,"[1]; Polynucleobacter necessarius asymbioticus, + 3-HP",5.37
same,Relative mRNA level mmsadh + 3-HP,"[1]; Pseudoalteromonas carrgeenovora, + 3-HP",5.03
same,Relative mRNA level mmsadh + 3-HP,"[1]; Pseudogulbenkiania sp., + 3-HP",5.36
same,Relative mRNA level mmsadh + 3-HP,"[1]; Pseudomonas denitrificans ATCC13867, + 3-HP",5.43
same,Relative mRNA level mmsadh + 3-HP,"[1]; Pseudomonas fluorescens, + 3-HP",4.70
same,Relative mRNA level mmsadh + 3-HP,"[1]; Pseudomonas knackmussii, + 3-HP",5.96
same,Relative mRNA level mmsadh + 3-HP,"[1]; Pseudomonas protegens, + 3-HP",5.01
same,Relative mRNA level mmsadh + 3-HP,"[1]; Pseudoxanthomonas spadix, + 3-HP",4.96
same,Relative mRNA level mmsadh + 3-HP,"[1]; Psychrobacter phenylpyruvicus, + 3-HP",5.03
same,Relative mRNA level mmsadh + 3-HP,"[1]; Rhodomicrobium vannielli, + 3-HP",6.02
same,Relative mRNA level mmsadh + 3-HP,"[1]; Segniliparus rotundus, + 3-HP",4.32
same,Relative mRNA level mmsadh + 3-HP,"[1]; Shewanella oneidensis, + 3-HP",4.07
same,Relative mRNA level mmsadh + 3-HP,"[1]; Simiduia agarovorans, + 3-HP",4.87
same,Relative mRNA level mmsadh + 3-HP,"[1]; Sinorhizobium meliloti, + 3-HP",4.07
same,Relative mRNA level mmsadh + 3-HP,"[1]; Sphingobium chlorophenolicum, + 3-HP",4.86
same,Relative mRNA level mmsadh + 3-HP,"[1]; Sphingomonas wittichii, + 3-HP",6.42
same,Relative mRNA level mmsadh + 3-HP,"[1]; Sphingopyxis alaskensis, + 3-HP",6.94
same,Relative mRNA level mmsadh + 3-HP,"[1]; Stenotrophomonas maltophilia, + 3-HP",5.21
same,Relative mRNA level mmsadh + 3-HP,"[1]; Streptomyces nodosus, + 3-HP",5.14
same,Relative mRNA level mmsadh + 3-HP,"[1]; Tatlockia micdadei, + 3-HP",5.65
same,Relative mRNA level mmsadh + 3-HP,"[1]; Thalassospira xiamenensis, + 3-HP",6.10
same,Relative mRNA level mmsadh + 3-HP,"[1]; Variovorax paradoxus, + 3-HP",4.97
same,Relative mRNA level mmsadh + 3-HP,"[1]; Verminephrobacter eiseniae, + 3-HP",5.14
same,Relative mRNA level mmsadh + 3-HP,"[1]; Vibrio furnissii, + 3-HP",4.91
same,Relative mRNA level mmsadh + 3-HP,"[1]; Xanthobacter autotrophicus, + 3-HP",5.41
same,Relative mRNA level mmsadh + 3-HP,"[1]; Xanthomonas campestri, + 3-HP",5.09
same,increase of expression of mmsadh by 3-HP,"[1]; in the microorganisms (Table 7), 25 mM 3-HP in nutrient medium",16 fold
same,inducer of expression of mmsadh and 3hibdhIV,[2]; FIG. 4,acts as an inducer
same,"amplification of the genes 3hpdh, 3hibdhIV and mmsadh by the compound",[2]; FIGS. 4 and 5,amplified
same,change of affinity of C4-LysR protein to DNA fragment in the presence of 3-HP,[3]; fragment F1,barely changed affinity
same,change of affinity of C4-LysR protein to DNA fragment in the presence of 3-HP,[3]; fragment F2,slightly decreased affinity
same,change of affinity of C4-LysR protein to DNA fragment in the presence of 3-HP,[3]; fragment F12 (O1 and O2 operators),increased affinity
same,relative size of GFP (relative to wild type in the absence of 3-HP),[4]; O1 & O2 mutation,10
same,relative size of GFP (relative to wild type in the absence of 3-HP),[4]; O1 mutation,10
same,relative size of GFP (relative to wild type in the absence of 3-HP),[4]; O2 mutation,1
same,relative size of GFP (relative to wild type in the absence of 3-HP),[4]; wildtype,1
same,relative size of GFP (relative to wild type in the absence of 3-HP),[4]; ΔC4-LysR,10
